Assays:
[1] = test system: normal human mammary epithelial cells (HMEC); experiment: Clonogenic cell survival, HMEC; assay type: cell-based; details: 100 μM BSO, 1 μM DTPP 24 h, 500 nM AUR 15 min
Procedure: FIGS. 1A-D: BSO, DTPP and AUR treated SUM159, MDA-MB231 and HMEC Clonogenic survival. In Panel A (SUM 159), B (MDA-MB231) and C(HMEC), 150,000 cells/dish SUM159 or MDA-MB231 and 300,000 cells/dish were plated in 60 mm tissue culture dishes. After 48 hours, cells were given fresh complete HMECs media and treated with 100 μM BSO+/1 μM DTPP for 24 hours. 500 nM AUR were added 15 mins before the trypsinization of cells for clonogenic survival assay. In panel A-C, The error bars represent mean±1 SD of n=1 treatment dishes done in 3 separate experiments where each treatment dish was used to prepare 6-10 replicate cloning dishes for analysis. *p<0.001 as compared to Control. […] Mice growing Sum159 xenograft tumors were treated with 100 μM DTPP in drinking water for 2 weeks followed by i.p. injections of BSO 675 mg/kg followed in 2 hrs with Au 2.7 mg/kg. The day following injections tumors were harvested, digested and stained for ALDH positive cells. Each bar represents an average of at least three tumors. Error bars are SEM. *p<0.05 vs. control.
FIG. 2: BSO and AUR treated SUM159 dose response Clonogenic survival. 150,000 cells/dish SUM159 were plated in 60 mm tissue culture dishes. After 48 hours, cells were given fresh complete HMECs media and treated with 100 μM BSO 24 hours. 500 nM AUR were added 15 mins, 30 mins, 45 mins, 1 hr, 1.5 hrs and 3 hrs before the trypsinization. Cells were then collected and plated for clonogenic survival. […]
Clonogenic cell survival: To determine whether the DTPP exposure alters the cell proliferation in MDA-MB231, SUM159 and HMECs, 150,000 cells/dish of MDA-MB231 and SUM159 cells, and 300,000 cells/dish HMECs were plated in 60 mm tissue culture dishes. […] Attached and floating cells in the experimental dishes were collected after trypsinization with 1× trypsin-EDTA (CellGro, Herndon, Va., USA), centrifuged, resuspended in fresh media, and counted using a Coulter counter. […]

HMECs = experiment: MitoSOX red oxidation, HMEC; assay type: cell-based, human
Procedure: FIGS. 4A-4C: MitoSOX oxidation in SUM159, MDA-MB231 and HMECs cells treated with BSO, DTPP and AUR. Asynchronously growing cultures of SUM159 (Panel A) MDA-MB231 (Panel B) and HMECs (Panel C) were plated and treated as described in FIG. 1. Monolayer cultures were harvested and trypsinized, washed once with PBS and labeled 20 minutes with 2 μM MitoSOX (in 0.1% DMSO) in PBS containing 5 mM pyruvate at 37° C. Each sample was then analyzed for the Mean fluorescence Intensity (MFI) of 10,000 cells by flow cytometry. Samples were assayed in triplicate; mean±1 SD of 1 experiment containing 3 treatment dishes per group (n=3), * or ^p<0.001 as compared to Control.
MitoSOX™ red oxidation to estimate mitochondrial superoxide production: To determine if DTPP can alter steady-state levels of superoxide originating from mitochondria in SUM159, MDA-MB231 and HMEC cells, the cationic superoxide sensitive dye, MitoSOX™red (Molecular Probes), was used. Cells were plated and treated as described earlier in clonogenic survival experiment. After the exposure, cells were trypsinized and washed with 5 mM/L pyruvate containing PBS once then labeled with MitoSOX™red (2 μM, in 0.1% DMSO, 20 minutes) at 37° C. After labeling, cells were kept on ice. Samples were analyzed using a FACScan flowcytometer (Becton Dickinson Immunocytometry System, INC., Mountain View, Calif.) (excitation 488 nm, emission 585 nm band-pass filter). The mean fluorescence intensity of 10,000 cells was analyzed in each sample and corrected for autofluorescence from unlabeled cells. The MFI data was normalized to control levels.

Compound	cytotoxicity (clonogenic survival), in words [1]	change in MitoSOX oxidation, in words (HMECs)	increase in MitoSOX oxidation (HMECs; 1 μM DTPP, 100 μM BSO 24 h, 500 nM AUR 15 min)
CC[PH](CC)(CC)[Au][S][C@@H]1O[C@H](COC(C)=O)[C@@H](OC(C)=O)[C@H](OC(C)=O)[C@H]1OC(C)=O [AUR, S-triethylphosphinegold(I)-2,3,4,6-tetra-O-acetyl-1-thio-β-D-glucopyranoside]	did not cause any significant cytotoxicity	no effects on MitoSOX oxidation	–
CCCCS(=N)(=O)CCC(N)C(=O)O [BSO, L-buthionine-[S,R]-sulfoximine, reference compound]	did not cause any significant cytotoxicity	no effects on MitoSOX oxidation	–
CCCCCCCCCC[P+](c1ccccc1)(c1ccccc1)c1ccccc1 [DTPP, Decyl-Triphenylphosphonium]	did not cause any significant cytotoxicity	–	10 fold
